Reference: ChEMBL document CHEMBL2407043, “Hydantoin based inhibitors of MMP13--discovery of AZD6605” (Bioorg Med Chem Lett, 2013)
≈ marks a conversion by molar mass, not a printed value.

Experiments:
[1] = organism: Rattus norvegicus; experiment: Toxicity in rat assessed as fibrodysplasia after 28 days; format: organism-based; conditions: in vivo, 672 h
[2] = organism: Rattus norvegicus; experiment: Toxicity in rat assessed as change in connective tissue after 28 days; format: organism-based; conditions: in vivo, 672 h
[3] = Genotoxicity in mouse lymphoma cells; format: toxicity, cell-based
[4] = tested on: Salmonella typhimurium; experiment: Mutagenic activity in Salmonella typhimurium by Ames assay; format: toxicity, organism-based; conditions: salmonella enterica subsp. enterica serovar typhimurium
[5] = organism: Rattus norvegicus; experiment: Toxicity in rat assessed as change in clinical chemistry or hematological parameters after 28 days; format: organism-based; conditions: in vivo, 672 h
[6] = organism: Rattus norvegicus; experiment: Toxicity in rat assessed as change in body weight after 28 days; format: organism-based; conditions: in vivo, 672 h
[7] = organism: Rattus norvegicus; experiment: Toxicity in rat assessed as change in food and water consumption after 28 days; format: organism-based; conditions: in vivo, 672 h
[8] = organism: Rattus norvegicus; experiment: Toxicity in rat assessed as mortality after 28 days; format: organism-based; conditions: in vivo, 672 h
[9] = Oral bioavailability in dog at 1 mg/kg; format: ADME, organism-based, Canis lupus familiaris; conditions: in vivo
[10] = Oral bioavailability in rat at 5 mg/kg; format: ADME, organism-based; conditions: in vivo
[11] = Half life in dog at 0.5 mg/kg, iv and 1 mg/kg, po; format: ADME, organism-based, Canis lupus familiaris; conditions: in vivo
[12] = Volume of distribution at steady state in dog at 0.5 mg/kg, iv and 1 mg/kg, po; format: ADME, organism-based, Canis lupus familiaris; conditions: in vivo, read-out: Vdss
[13] = Clearance in dog at 0.5 mg/kg, iv and 1 mg/kg, po; format: ADME, organism-based, Canis lupus familiaris; conditions: in vivo
[14] = Volume of distribution at steady state in rat at 2 mg/kg, iv and 5 mg/kg, po; format: ADME, organism-based; conditions: in vivo, read-out: Vdss
[15] = Half life in rat at 2 mg/kg, iv and 5 mg/kg, po; format: ADME, organism-based; conditions: in vivo
[16] = Clearance in rat at 2 mg/kg, iv and 5 mg/kg, po; format: ADME, organism-based; conditions: in vivo
[17] = Apparent permeability across basolateral to apical side in human Caco2 cells at 10 uM; format: ADME, cell-based; conditions: Caco-2
[18] = target: Cytochrome P450 3A4 (Homo sapiens, UniProt P08684); experiment: Inhibition of human CYP3A4; format: ADME
Chain of Cytochrome P450 3A4 (P08684 whole entry): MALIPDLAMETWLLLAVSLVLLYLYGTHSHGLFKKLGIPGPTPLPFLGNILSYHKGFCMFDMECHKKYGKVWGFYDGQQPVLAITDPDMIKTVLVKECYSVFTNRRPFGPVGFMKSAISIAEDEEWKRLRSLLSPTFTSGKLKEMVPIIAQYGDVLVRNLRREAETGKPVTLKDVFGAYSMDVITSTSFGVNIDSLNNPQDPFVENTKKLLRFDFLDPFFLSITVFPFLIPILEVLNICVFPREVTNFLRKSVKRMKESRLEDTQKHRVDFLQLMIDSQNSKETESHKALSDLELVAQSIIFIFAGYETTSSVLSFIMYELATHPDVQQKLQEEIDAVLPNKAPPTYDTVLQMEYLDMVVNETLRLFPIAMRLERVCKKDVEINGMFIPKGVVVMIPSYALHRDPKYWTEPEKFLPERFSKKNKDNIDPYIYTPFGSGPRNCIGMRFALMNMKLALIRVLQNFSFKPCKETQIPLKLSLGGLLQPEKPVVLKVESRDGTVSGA

[19] = target: Cytochrome P450 2D6 (Homo sapiens, UniProt P10635); experiment: Inhibition of human CYP2D6; format: ADME
Chain of Cytochrome P450 2D6 (P10635 whole entry): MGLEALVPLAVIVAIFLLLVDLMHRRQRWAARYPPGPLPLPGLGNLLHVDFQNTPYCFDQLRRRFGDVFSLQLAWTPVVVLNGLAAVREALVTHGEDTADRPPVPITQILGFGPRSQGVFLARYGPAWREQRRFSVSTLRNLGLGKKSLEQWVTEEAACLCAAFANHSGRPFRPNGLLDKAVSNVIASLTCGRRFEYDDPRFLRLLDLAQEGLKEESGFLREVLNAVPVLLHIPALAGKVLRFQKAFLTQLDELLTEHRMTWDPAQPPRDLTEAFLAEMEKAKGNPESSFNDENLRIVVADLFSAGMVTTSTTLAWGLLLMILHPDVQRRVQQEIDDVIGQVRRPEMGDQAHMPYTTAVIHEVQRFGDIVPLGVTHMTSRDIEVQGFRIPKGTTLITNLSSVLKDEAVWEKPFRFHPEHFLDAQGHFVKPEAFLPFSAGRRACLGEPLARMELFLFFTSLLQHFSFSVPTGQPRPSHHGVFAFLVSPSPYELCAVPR

[20] = target: Cytochrome P450 2C9 (Homo sapiens, UniProt P11712); experiment: Inhibition of human CYP2C9; format: ADME
Chain of Cytochrome P450 2C9 (P11712 whole entry): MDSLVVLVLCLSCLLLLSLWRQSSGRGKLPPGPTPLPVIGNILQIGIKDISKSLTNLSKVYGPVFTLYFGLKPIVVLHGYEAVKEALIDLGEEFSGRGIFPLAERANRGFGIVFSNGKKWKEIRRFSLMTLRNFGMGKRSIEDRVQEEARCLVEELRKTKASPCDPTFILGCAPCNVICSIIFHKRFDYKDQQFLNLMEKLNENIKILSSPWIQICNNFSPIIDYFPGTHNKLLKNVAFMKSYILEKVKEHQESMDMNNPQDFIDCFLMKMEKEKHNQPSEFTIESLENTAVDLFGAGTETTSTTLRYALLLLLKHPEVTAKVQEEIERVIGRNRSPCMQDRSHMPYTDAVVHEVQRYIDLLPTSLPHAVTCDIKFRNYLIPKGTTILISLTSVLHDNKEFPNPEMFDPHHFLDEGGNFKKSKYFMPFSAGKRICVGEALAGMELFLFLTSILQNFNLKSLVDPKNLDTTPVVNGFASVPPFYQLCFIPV

[21] = target: Cytochrome P450 2C19 (Homo sapiens, UniProt P33261); experiment: Inhibition of human CYP2C19; format: ADME
Chain of Cytochrome P450 2C19 (P33261 whole entry): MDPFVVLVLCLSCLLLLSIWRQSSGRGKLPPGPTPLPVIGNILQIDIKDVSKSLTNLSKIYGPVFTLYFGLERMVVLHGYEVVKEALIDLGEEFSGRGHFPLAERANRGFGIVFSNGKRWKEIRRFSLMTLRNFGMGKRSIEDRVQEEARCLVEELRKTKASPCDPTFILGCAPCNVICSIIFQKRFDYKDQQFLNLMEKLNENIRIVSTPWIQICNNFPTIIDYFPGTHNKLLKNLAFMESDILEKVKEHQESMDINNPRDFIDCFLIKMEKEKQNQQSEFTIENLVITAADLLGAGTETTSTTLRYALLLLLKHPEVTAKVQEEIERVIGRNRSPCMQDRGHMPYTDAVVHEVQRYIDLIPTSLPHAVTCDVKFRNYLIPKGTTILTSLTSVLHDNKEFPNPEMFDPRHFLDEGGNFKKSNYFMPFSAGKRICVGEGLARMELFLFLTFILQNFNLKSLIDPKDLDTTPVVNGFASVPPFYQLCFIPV

[22] = target: T1, Cytochrome P450 1A2 (Homo sapiens, UniProt P05177); experiment: Inhibition of human CYP1A2; format: ADME
T1 sequence (P05177 whole entry): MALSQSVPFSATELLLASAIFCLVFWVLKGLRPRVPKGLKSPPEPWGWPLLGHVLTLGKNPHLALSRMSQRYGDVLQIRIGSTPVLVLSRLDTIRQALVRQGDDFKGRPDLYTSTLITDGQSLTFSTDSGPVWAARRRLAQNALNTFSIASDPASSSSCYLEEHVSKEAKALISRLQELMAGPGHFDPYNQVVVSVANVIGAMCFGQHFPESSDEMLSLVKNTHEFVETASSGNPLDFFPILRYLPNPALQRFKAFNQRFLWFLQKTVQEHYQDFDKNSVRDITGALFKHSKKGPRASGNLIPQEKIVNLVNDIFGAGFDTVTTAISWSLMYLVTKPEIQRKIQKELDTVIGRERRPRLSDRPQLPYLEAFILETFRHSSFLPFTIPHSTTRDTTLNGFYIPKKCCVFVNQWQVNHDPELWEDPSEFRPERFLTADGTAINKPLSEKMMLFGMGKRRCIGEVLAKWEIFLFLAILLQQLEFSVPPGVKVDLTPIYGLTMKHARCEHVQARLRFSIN

[23] = Fraction unbound in dog plasma; format: ADME, cell-free, Canis lupus familiaris
[24] = Fraction unbound in human plasma; format: ADME, cell-free
[25] = Fraction unbound in rat plasma; format: ADME, cell-free
[26] = Solubility of compound in fasted state simulated intestinal fluid; format: physicochemical
[27] = target: Matrix metalloproteinase-14 (Homo sapiens, UniProt P50281)
[28] = Intrinsic clearance in human hepatocytes measured per 10^6 cells; format: ADME, cell-based, Hepatocyte; conditions: read-out: CLH
[29] = in vitro; conditions: human, Caco-2
[30] = physchem; conditions: buffer, pH 7.4
[31] = in vitro; conditions: human, liver microsomes
[32] = organism: Cavia porcellus; experiment: animal or person; conditions: Dunkin Hartley, sc, 2016 h, read-out: INH
[33] = Thermodynamic solubility of the compound in phosphate buffer at pH 7.4 at 25 degC after 24 hrs; conditions: read-out: Therm_solubility

## C[C@]1(CS(=O)(=O)N2CCC(Oc3ccc(OC(F)(F)C(F)F)cc3)CC2)NC(=O)NC1=O
[1]
  Activity: Non-toxic
[2]
  Activity: Non-toxic
[3]
  Activity: Non-toxic
[4]
  Activity: Non-toxic
[5]
  Activity: Non-toxic
[6]
  Activity: Non-toxic
[7]
  Activity: Non-toxic
[8]
  Activity: Non-toxic
[9]
  bioavailability: 40%
[10]
  bioavailability: 64%
[11]
  half-life: 2100 min
[12]
  Vd: 0.6 L/kg
[13]
  clearance: 0.2 mL/min/kg
[14]
  Vd: 0.6 L/kg
[15]
  half-life: 960 min
[16]
  clearance: 0.4 mL/min/kg
[17]
  Papp B→A at 10 µM: 52 ×10⁻⁶ cm/s
[18]
  IC50: > 10 µM
[19]
  IC50: > 10 µM
[20]
  IC50: > 10 µM
[21]
  IC50: > 10 µM
[22]
  IC50: > 10 µM
[23]
  fraction unbound: 0.05
[24]
  fraction unbound: 0.05
[25]
  fraction unbound: 0.03
[26]
  solubility: 14.9 µM (≈ 7.2 µg/mL)
[27]
  IC50: 2220 nM
[28]
  hepatocyte CLint: < 2 µL/min/1e6 cells
[29]
  Papp A→B at 10 µM: 21 ×10⁻⁶ cm/s
[30]
  logD: 2
[31]
  microsomal CLint: < 2 µL/min/mg
[32]
  inhibition in vivo at 11 mg/kg/day: 104%
[33]
  solubility thermodynamic at 24 h: 6.8 µM (≈ 3.29 µg/mL)
